IC50 data for 50 molecules are collected here from PubChem BioAssay AID1949 (Southern Research Institute, 2009).

≈ marks a conversion by molar mass, not a printed value. Results filed as inconclusive are left out. Calls of active or inactive are those of the source. How the calls were made is not given here.

The subject of the test is M. tuberculosis H37Rv growth inhibition. Description: Confirmatory growth inhibition assay against Mycobacterium tuberculosis H37Rv, potency (AID 1949).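 Further: bacteria grown 7 days with compound before Alamar blue readout.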

In the case of `COc1cc2c(cc1NC(=O)Nc1ccc(Cl)cc1)oc1ccccc12`, the IC50 (as a rule, the concentration at which inhibition is half-maximal) is 1.33 µg/mL (≈ 3.63 µM).

Take `Cc1cccc(NC(=S)NC(=O)CC23CC4CC(CC(C4)C2)C3)c1`: the IC50 is 2.89 µg/mL (≈ 8.44 µM).

Consider `CCOC(=O)C(C)Oc1ccc2c(=O)c(Oc3ccccc3Cl)coc2c1` (stereo not given), for which the IC50 is 8.87 µg/mL (≈ 22.8 µM).

On to `CC1=CC(C)(C)N2C(=O)C(=O)c3cc(OC(=O)c4ccccc4C)cc1c32`, for which the IC50 was 8.23 µg/mL (≈ 22.8 µM).

Take `CCc1cccc(OCC(=O)Nc2ccc([N+](=O)[O-])cc2)c1`: the IC50 is 11.7 µg/mL (≈ 39.1 µM).

As for `CCn1cc(C(=O)O)c(=O)c2cc(F)c(N3CCN(C(=S)NC)CC3)cc21`, the IC50 was 11.8 µg/mL (≈ 30.1 µM).

For `CC1CCc2c(sc3ncn(C(C)C(=O)OCc4ccccc4)c(=O)c23)C1` (stereo not given), the IC50 is 1.53 µg/mL (≈ 4 µM).

Turning to `COC(=O)c1c(C)oc2ccc(OC(=O)c3ccc([N+](=O)[O-])cc3)cc12`, the IC50 was > 50 µg/mL (inactive).

On to `CC(C)(C)c1cc(Cl)c(O)c(NC(=S)NC(=O)c2cccc3ccccc23)c1`, for which the IC50 is below 0.1 µg/mL.

Take `CC(=O)c1c(C)nc(-c2ccc(Cl)c(Cl)c2)n1O`: the IC50 was 17.4 µg/mL (≈ 60.9 µM).

Regarding `O=C(CCNc1ccc(-c2ccccc2)cc1)c1ccco1`, the IC50 was below 0.1 µg/mL.

Take `O=C(Nc1cccc(CCc2ccccn2)c1)NC1CCCCC1`: the IC50 is 38.7 µg/mL (≈ 120 µM).

With `Cc1nc2ccc(C(=O)OCc3nnc(-c4ccccc4)o3)cc2nc1C`, the IC50 was 2.98 µg/mL (≈ 8.27 µM).

Regarding `N#Cc1ccccc1NC(=O)CSc1nc2cc3ccccc3cc2[nH]1`, the half-maximal inhibitory concentration (IC50) is 2.68 µg/mL (≈ 7.48 µM).

For the molecule `Cc1cccc(Nc2nc(NCc3ccco3)c3ccccc3n2)c1`, the 50% inhibitory concentration (IC50) is 1.86 µg/mL (≈ 5.63 µM).

On to `O=C(CC1(O)C(=O)N(CCc2ccccc2)c2ccc(Cl)cc21)c1ccc(Cl)s1` (stereo not given), for which the IC50 is 5.18 µg/mL (≈ 11.6 µM).

On to `O=C(CC1(O)C(=O)N(CCc2ccccc2)c2ccc(Cl)cc21)c1ccncc1` (stereo not given), for which the half-inhibitory concentration (IC50) was 6.03 µg/mL (≈ 14.8 µM).

As for `C/C(=N/N=C1\NC(=O)C(Cc2ccc(F)cc2)S1)c1ccc(C)cc1` (stereo not given), the IC50 is > 50 µg/mL (inactive).

For `C=C(C)CN1CCN(c2nc(NCc3ccco3)c3ccccc3n2)CC1`, the IC50 is 4.56 µg/mL (≈ 12.5 µM).

Take `C=CCNCCCOc1ccc(Cl)cc1C(C)(C)C`: the IC50 is 6.96 µg/mL (≈ 24.7 µM).

Regarding `COc1ccc(/C=C/c2nc3ccccc3c(=O)o2)cc1`, the IC50 was 27.6 µg/mL (≈ 99 µM).

For the molecule `O=C(NCc1ccc2c(c1)OCO2)c1cnn2c1NC(c1cccs1)CC2C(F)(F)F` (stereo not given), the IC50 was 0.13 µg/mL (≈ 0.289 µM).

As for `CC(C(=O)OCc1ccccc1Cl)n1cnc2scc(-c3ccc(Cl)cc3)c2c1=O` (stereo not given), the IC50 was > 50 µg/mL (inactive).

Regarding `Cc1ccc(-c2csc3ncn(C(C)C(=O)OC4CCCCC4)c(=O)c23)cc1C` (stereo not given), the IC50 was 1.52 µg/mL (≈ 3.7 µM).

Consider `Cc1ccc(C(=O)Nc2ccc([N+](=O)[O-])cc2)s1`, for which the IC50 was below 0.1 µg/mL.

`CCOC(=O)C(C)n1cnc2scc(-c3ccc(CC)cc3)c2c1=O` (stereo not given): the IC50 was 3.9 µg/mL (≈ 10.9 µM).

As to `CCOC(=O)CSc1n[nH]c(-c2ccc(Cl)cc2)n1`, the IC50 is 2.99 µg/mL (≈ 10 µM).

For `CCOc1cc(C(=O)O/N=C(\N)Cc2ccc(Cl)cc2Cl)cc(OCC)c1OCC`, the IC50 was 38 µg/mL (≈ 83.5 µM).

For `CCc1ccccc1N1C(=O)c2cccc3c([N+](=O)[O-])ccc(c23)C1=O`, the IC50 is 19 µg/mL (≈ 54.9 µM).

As to `Cc1nc2c(-c3ccc(Cl)cc3)cnn2c(N)c1-c1ccccc1`, the IC50 was 0.84 µg/mL (≈ 2.51 µM).

Turning to `CCC(C)c1ccc(O)c(NC(=S)NC(=O)c2ccc(-c3ccc(Cl)cc3)o2)c1` (stereo not given), the IC50 is below 0.1 µg/mL.

Regarding `Cc1ccc(Cl)cc1N1CCN(CC(O)COCC2COc3ccccc3O2)CC1` (stereo not given), the IC50 was 5.17 µg/mL (≈ 11.9 µM).

For the molecule `O=C(c1ccc(Cl)cc1)c1ccc(OCC(O)CN2CCN(Cc3ccccc3)CC2)cc1` (stereo not given), the IC50 was 2.75 µg/mL (≈ 5.91 µM).

Turning to `COc1cc(OC)cc(C(=O)NC(=S)N2CCCCCC2)c1`, the IC50 is 2.83 µg/mL (≈ 8.78 µM).

For `Cc1cc(Nc2cccc(Cl)c2)nc(NCc2ccccc2)n1`, the IC50 is 1.39 µg/mL (≈ 4.28 µM).

Take `CCOC(=O)c1cnc2ccc(OC)cc2c1Nc1ccc2c(c1)OCCO2`: the IC50 is 2.9 µg/mL (≈ 7.62 µM).

`O=Cc1cccc(OCC(=O)Nc2cccc(Cl)c2)c1`: the IC50 is 45 µg/mL (≈ 155 µM).

In the case of `CCOC(=O)c1cc(-c2ccccc2)sc1NC(=S)NC1CCN(Cc2ccccc2)CC1`, the IC50 was 0.77 µg/mL (≈ 1.61 µM).

Turning to `CCCCCn1c(NCc2ccc(N(C)C)cc2)nc2ccccc21`, the IC50 was 2.9 µg/mL (≈ 8.62 µM).

As for `CCOC(=O)COc1ccc(C(=O)Nc2cccc(Cl)c2C)cc1`, the IC50 was below 0.1 µg/mL.

In the case of `COC(=O)COc1ccc(C2CCCCC2)cc1`, the IC50 is 1.46 µg/mL (≈ 5.88 µM).

Regarding `COc1ccc(Cc2nc3sc4c(c3c(=O)n2N)CCCC4)cc1`, the IC50 was > 50 µg/mL (inactive).

As to `CC(NC(=O)Nc1cccc(C(F)(F)F)c1)C1CC2CCC1C2` (stereo not given), the IC50 was below 0.1 µg/mL.

Regarding `COc1cc(NC(=S)N2CCN(C)CC2)cc(OC)c1`, the IC50 was > 50 µg/mL (inactive).

As for `Cc1cc(C(=O)Oc2ccccc2)ccc1[N+](=O)[O-]`, the half-inhibitory concentration (IC50) was 1.87 µg/mL (≈ 7.27 µM).

Consider `COc1cc(NC(=O)C(Cl)Cl)c(OC)cc1Cl`, for which the IC50 was 2.68 µg/mL (≈ 8.98 µM).

On to `CCOc1ccc(OCc2ccc(C(=O)Nc3cccc(C)n3)o2)cc1`, for which the IC50 is 7.11 µg/mL (≈ 20.2 µM).

`Cc1ccc2c(c1)c1c(n2CC(O)CN2CCCCCC2)C(=O)CCC1` (stereo not given): the half-maximal inhibitory concentration (IC50) is 6.18 µg/mL (≈ 17.4 µM).

Turning to `CCOCC(=O)Nc1sc2c(c1C(=O)OCC)CCCC2`, the IC50 is > 50 µg/mL (inactive).

`O=C(/C=C/c1cccc(C(F)(F)F)c1)Nc1cccc(Br)c1`: the IC50 is 1.39 µg/mL (≈ 3.76 µM).
